Source: ChEMBL document CHEMBL3885861, “Open TG-GATES”

Species: Rattus norvegicus
Assay: Open TG-GATES - Regimen: Single
Type: toxicity, organism-based, Sprague-Dawley
Parameters: regimen Single, gender Male, age 6 weeks
Conditions: in vivo, po, 0 mg/kg, route gavage, dose level Control; for APTT / Bas / Eos / Fbg / Hb / Ht / Lym / MCH / MCHC / MCV / Mono / Neu / PT / Plat / RBC / Ret / WBC: tissue Blood; for KIDNEY_L / KIDNEY_R / KIDNEY_TOTAL: tissue Kidney; for LIVER: tissue Liver; for A/G / ALP / ALT / AST / BUN / CRE / Ca / Cl / DBIL / GLC / IP / K / LDH / Na / PL / RALB / TBIL / TC / TG / TP / gamma-GTP: tissue Plasma

COc1ccc(Cc2nccc3cc(OC)c(OC)cc23)cc1OC [PAPAVERINE]
TERMINAL_BW (3 h): 223.5 g
APTT (3 h): 21.8 s
Bas (3 h): 0%
Eos (3 h): 0.8%
Fbg (3 h): 332.6 mg/dL
Hb (3 h): 13.5 g/dL
Ht (3 h): 40.3%
Lym (3 h): 80.6%
MCH (3 h): 21.3 pg
MCHC (3 h): 33.5%
MCV (3 h): 63.4 fL
Mono (3 h): 2.2%
Neu (3 h): 15%
PT (3 h): 15.8 s
Plat (3 h): 108.7 x10_4/uL
RBC (3 h): 637.4 x10_4/ul
Ret (3 h): 7.9%
WBC (3 h): 110.9 x10_2/uL
KIDNEY_L (3 h): 1 g
KIDNEY_R (3 h): 1 g
KIDNEY_TOTAL (3 h): 2 g
LIVER (3 h): 10.2 g
A/G (3 h): 1.2
ALP (3 h): 1651.2 IU/L
ALT (3 h): 42.8 IU/L
AST (3 h): 73 IU/L
BUN (3 h): 14 mg/dL
CRE (3 h): 0.1 mg/dL
Ca (3 h): 11 mg/dL
Cl (3 h): 108.6 meq/L
DBIL (3 h): 0 mg/dL
GLC (3 h): 193.6 mg/dL
IP (3 h): 7.8 mg/dL
K (3 h): 4 meq/L
LDH (3 h): 147.2 IU/L
Na (3 h): 141.6 meq/L
PL (3 h): 140.2 mg/dL
RALB (3 h): 3 g/dL
TBIL (3 h): 0.01 mg/dL
TC (3 h): 82.6 mg/dL
TG (3 h): 55 mg/dL
TP (3 h): 5.5 g/dL
gamma-GTP (3 h): 2 IU/L
TERMINAL_BW (6 h): 214 g
APTT (6 h): 23 s
Bas (6 h): 0%
Eos (6 h): 0.6%
Fbg (6 h): 325.8 mg/dL
Hb (6 h): 13.8 g/dL
Ht (6 h): 41.4%
Lym (6 h): 82.8%
MCH (6 h): 20.8 pg
MCHC (6 h): 33.3%
MCV (6 h): 62.5 fL
Mono (6 h): 2.2%
Neu (6 h): 13.4%
PT (6 h): 15.9 s
Plat (6 h): 116.4 x10_4/uL
RBC (6 h): 664 x10_4/ul
Ret (6 h): 7.4%
WBC (6 h): 118.9 x10_2/uL
KIDNEY_L (6 h): 0.9 g
KIDNEY_R (6 h): 0.9 g
KIDNEY_TOTAL (6 h): 1.8 g
LIVER (6 h): 9.4 g
A/G (6 h): 1.2
ALP (6 h): 1310.2 IU/L
ALT (6 h): 38.4 IU/L
AST (6 h): 74.4 IU/L
BUN (6 h): 10 mg/dL
CRE (6 h): 0.1 mg/dL
Ca (6 h): 11 mg/dL
Cl (6 h): 106.2 meq/L
DBIL (6 h): 0.002 mg/dL
GLC (6 h): 180.6 mg/dL
IP (6 h): 8.8 mg/dL
K (6 h): 4.3 meq/L
LDH (6 h): 159.6 IU/L
Na (6 h): 140.8 meq/L
PL (6 h): 131.6 mg/dL
RALB (6 h): 2.9 g/dL
TBIL (6 h): 0.01 mg/dL
TC (6 h): 79.2 mg/dL
TG (6 h): 47.6 mg/dL
TP (6 h): 5.3 g/dL
gamma-GTP (6 h): 2 IU/L
TERMINAL_BW (9 h): 213.9 g
APTT (9 h): 22.9 s
Bas (9 h): 0%
Eos (9 h): 1%
Fbg (9 h): 312.8 mg/dL
Hb (9 h): 13.1 g/dL
Ht (9 h): 39.9%
Lym (9 h): 81.2%
MCH (9 h): 20.3 pg
MCHC (9 h): 33%
MCV (9 h): 61.6 fL
Mono (9 h): 2.4%
Neu (9 h): 14.4%
PT (9 h): 15.6 s
Plat (9 h): 107.7 x10_4/uL
RBC (9 h): 647.6 x10_4/ul
Ret (9 h): 7.9%
WBC (9 h): 110.4 x10_2/uL
KIDNEY_L (9 h): 0.9 g
KIDNEY_R (9 h): 0.9 g
KIDNEY_TOTAL (9 h): 1.9 g
LIVER (9 h): 9.1 g
A/G (9 h): 1.3
ALP (9 h): 1489.8 IU/L
ALT (9 h): 41.2 IU/L
AST (9 h): 69.4 IU/L
BUN (9 h): 11.2 mg/dL
CRE (9 h): 0.1 mg/dL
Ca (9 h): 10.9 mg/dL
Cl (9 h): 105.8 meq/L
DBIL (9 h): 0 mg/dL
GLC (9 h): 190.8 mg/dL
IP (9 h): 9.1 mg/dL
K (9 h): 4.2 meq/L
LDH (9 h): 169 IU/L
Na (9 h): 140.6 meq/L
PL (9 h): 134.6 mg/dL
RALB (9 h): 3 g/dL
TBIL (9 h): 0.016 mg/dL
TC (9 h): 78.4 mg/dL
TG (9 h): 75 mg/dL
TP (9 h): 5.3 g/dL
gamma-GTP (9 h): 1.6 IU/L
TERMINAL_BW (24 h): 237.4 g
APTT (24 h): 21.6 s
Bas (24 h): 0%
Eos (24 h): 1%
Fbg (24 h): 315.8 mg/dL
Hb (24 h): 13.5 g/dL
Ht (24 h): 40%
Lym (24 h): 81%
MCH (24 h): 21 pg
MCHC (24 h): 33.6%
MCV (24 h): 62.6 fL
Mono (24 h): 2.8%
Neu (24 h): 14.6%
PT (24 h): 16 s
Plat (24 h): 106.2 x10_4/uL
RBC (24 h): 639.4 x10_4/ul
Ret (24 h): 7.5%
WBC (24 h): 110.4 x10_2/uL
KIDNEY_L (24 h): 1 g
KIDNEY_R (24 h): 1 g
KIDNEY_TOTAL (24 h): 2.1 g
LIVER (24 h): 11.3 g
A/G (24 h): 1.3
ALP (24 h): 1563.2 IU/L
ALT (24 h): 46.2 IU/L
AST (24 h): 72.2 IU/L
BUN (24 h): 15.4 mg/dL
CRE (24 h): 0.1 mg/dL
Ca (24 h): 10.8 mg/dL
Cl (24 h): 106.2 meq/L
DBIL (24 h): 0 mg/dL
GLC (24 h): 198.2 mg/dL
IP (24 h): 7.9 mg/dL
K (24 h): 4.4 meq/L
LDH (24 h): 179.4 IU/L
Na (24 h): 143 meq/L
PL (24 h): 142.6 mg/dL
RALB (24 h): 3 g/dL
TBIL (24 h): 0.01 mg/dL
TC (24 h): 77 mg/dL
TG (24 h): 87.8 mg/dL
TP (24 h): 5.3 g/dL
gamma-GTP (24 h): 1.8 IU/L
